The record followed here is patent publication US5543415A, “Antidepressants” (Kyowa Hakko Kogyo Co., Ltd., priority 1992, dated 1996).

The test system of this data set is ddY-strain male mice. Nature of the data set: Acute Toxicity Test (minimum lethal dose, oral). In kind it is in vivo. To be noted: seven days after administration. The method, then: Test compounds were orally administered to groups of ddY-strain male mice weighing 20±1 g, each group consisting of three mice. Seven days after the administration, minimum lethal dose (MLD) of each compound was determined by observing the mortality.
For `CCn1c(=O)c2[nH]c(/C=C/c3ccc4c(c3)OCO4)nc2n(CC)c1=O` [Compound 87, (E)-1,3-Diethyl-8-(3,4-methylenedioxystyryl)xanthine], the “MLD (minimum lethal dose)” value is reported as more than 300 mg/kg.

Regarding `CCn1c(=O)c2c(nc(/C=C/c3ccc4c(c3)OCO4)n2C)n(CC)c1=O` [Compound 88, (E)-1,3-Diethyl-7-methyl-8-(3,4-methylenedioxystyryl)xanthine], the “MLD (minimum lethal dose)” value is on record as more than 300 mg/kg.

Consider `CCn1c(=O)c2[nH]c(/C=C/c3ccc4c(c3)OCCO4)nc2n(CC)c1=O` [Compound 89, (E)-8-[2-(1,4-Benzodioxan-6-yl)vinyl]-1,3-diethylxanthine], for which the “MLD (minimum lethal dose)” value was more than 100 mg/kg.

With `CCn1c(=O)c2c(nc(/C=C/c3ccc4c(c3)OCCO4)n2C)n(CC)c1=O` [Compound 90, (E)-8-[2-(1,4-Benzodioxan-6-yl)vinyl]-1,3-diethyl-7-methylxanthine], the “MLD (minimum lethal dose)” value is more than 300 mg/kg.

For the compound `COc1ccc(/C=C/c2nc3c(=O)n(C)c(=O)n(C)c3[nH]2)c(OC)c1OC` [Compound 91, (E)-8-(2,3,4-Trimethoxystyryl)theophylline], the “MLD (minimum lethal dose)” value was more than 300 mg/kg.

Take `COc1ccc(/C=C/c2nc3c(c(=O)n(C)c(=O)n3C)n2C)c(OC)c1OC` [Compound 92, (E)-8-(2,3,4-Trimethoxystyryl)caffeine]: the “MLD (minimum lethal dose)” value is reported as more than 300 mg/kg.

For `COc1ccc(/C=C/c2nc3c([nH]2)c(=O)n(C)c(=O)n3C)c(C)c1C` [Compound 93, (E)-8-(4-Methoxy-2,3-dimethylstyryl)theophylline], the “MLD (minimum lethal dose)” value is on record as more than 100 mg/kg.

As to `COc1ccc(/C=C/c2nc3c(c(=O)n(C)c(=O)n3C)n2C)c(C)c1C` [Compound 94, (E)-8-(4-Methoxy-2,3-dimethylstyryl)caffeine], the “MLD (minimum lethal dose)” value is on record as more than 100 mg/kg.

As for `Cn1c(=O)c2[nH]c(/C=C/c3ccc4c(c3)OCO4)nc2n(C)c1=O` [Compound 95, (E)-8-(3,4-Methylenedioxystyryl)theophylline], the “MLD (minimum lethal dose)” value is reported as more than 300 mg/kg.

`Cn1c(=O)c2c(nc(/C=C/c3ccc4c(c3)OCO4)n2C)n(C)c1=O` [Compound 96, (E)-8-(3,4-Methylenedioxystyryl)caffeine]: the “MLD (minimum lethal dose)” value was more than 300 mg/kg.

In the case of `COc1cccc(/C=C/c2nc3c(=O)n(C)c(=O)n(C)c3[nH]2)c1OC` [Compound 97, (E)-8-(2,3-Dimethoxystyryl)theophylline], the “MLD (minimum lethal dose)” value was more than 100 mg/kg.

On to `COc1cccc(/C=C/c2nc3c(c(=O)n(C)c(=O)n3C)n2C)c1OC` [Compound 98, (E)-8-(2,3-Dimethoxystyryl)caffeine], for which the “MLD (minimum lethal dose)” value was more than 300 mg/kg.

In the case of `COc1ccc(/C=C/c2nc3c([nH]2)c(=O)n(C)c(=O)n3C)c(OC)c1` [Compound 99, (E)-8-(2,4-Dimethoxystyryl)theophylline], the “MLD (minimum lethal dose)” value is more than 100 mg/kg.

As to `COc1ccc(/C=C/c2nc3c(c(=O)n(C)c(=O)n3C)n2C)c(OC)c1` [Compound 100, (E)-8-(2,4-Dimethoxystyryl)caffeine], the “MLD (minimum lethal dose)” value is given as more than 300 mg/kg.

For `COc1cc(C)c(/C=C/c2nc3c([nH]2)c(=O)n(C)c(=O)n3C)cc1C` [Compound 101, (E)-8-(4-Methoxy-2,5-dimethylstyryl)theophylline], the “MLD (minimum lethal dose)” value was more than 100 mg/kg.

Consider `COc1cc(C)c(/C=C/c2nc3c(c(=O)n(C)c(=O)n3C)n2C)cc1C` [Compound 102, (E)-8-(4-Methoxy-2,5-dimethylstyryl)caffeine], for which the “MLD (minimum lethal dose)” value is reported as more than 100 mg/kg.

Regarding `COc1ccc(/C=C/c2nc3c([nH]2)c(=O)n(C)c(=O)n3C)c(OC)c1C` [Compound 103, (E)-8-(2,4-Dimethoxy-3-methylstyryl)theophylline], the “MLD (minimum lethal dose)” value is more than 100 mg/kg.

For `COc1ccc(/C=C/c2nc3c(c(=O)n(C)c(=O)n3C)n2C)c(OC)c1C` [Compound 104, (E)-8-(2,4-Dimethoxy-3-methylstyryl)caffeine], the “MLD (minimum lethal dose)” value is listed as more than 100 mg/kg.
